Data from article PMC11681865, “Oligomerization of protein arginine methyltransferase 1 and its functional impact on substrate arginine methylation” (The Journal of Biological Chemistry, 2024).
Entries after “also recorded” stand apart in the source; their conditions may differ.

Experiments:
PRMT1 [1] = target: T1, PRMT1 (Homo sapiens, UniProt Q99873); assay: MALDI-MS methylation states of R4 peptide by PRMT1-WT; type: biochemical; conditions: 0.5 μM vs 1 μM PRMT1, 10 μM R4, 50 μM SAM, 30 min
T1 construct: human PRMT1 protein (amino acid residue 11–353); His6; made in house
Text: (§1) It is known that PRMT1 can mono- and di-methylate an arginine residue on a protein or peptide substrate sequence, which results in monomethylarginine and asymmetric dimethylarginines product states. We attempted to examine whether oligomerization promotes PRMT1 ability to generate multiple methylation states in substrates. We used a synthetic peptide with four possible arginine methylation sites for PRMT1: the R4 peptide (Ac-[…]). R4 peptide, SAM, and different concentrations of PRMT1 were mixed in an aqueous buffer to allow methylation to occur, and then the mixture was subjected to MALDI-MS analysis. […] Our rationale is that, even though PRMT1-E153Q is catalytically dead, it can still interact with PRMT1-WT, resulting in hybrid higher oligomers. Therefore, presenting varying amounts of PRMT1-E153Q to a fixed concentration of PRMT1-WT would be another ideal way to test how oligomerization impacts on PRMT1 activity. […] Next, the concentration of PRMT1-WT was kept constant at 0.5 μM, but the concentration of PRMT1-E153Q was changed (Fig. 4). […] We further tested the methylation of the H4 peptide by 0.1 μM PRMT1-WT with the presence of PRMT1-E153Q.
Figure 3 Determine the methylation state of R4 peptide by PRMT1 high-order oligomers. The reaction consisted of 0 μM (A), 0.5 μM (B), 1 μM (C) of PRMT1, 10 μM R4 peptide, and 50 μM SAM for 30 min at room temperature. […]

[2] = test system: PRMT1-WT / PRMT1-E153Q oligomers; assay: MALDI-MS methylation states of R4 peptide by PRMT1-WT with added PRMT1-E153Q; type: biochemical, human; conditions: 0.5 μM PRMT1-WT, 0-2 μM PRMT1-E153Q
Text: as §1
Figure 4 Determine the methylation state of R4 peptide by PRMT1 and PRMT1-E153Q oligomers formation. PRMT1 and PRMT1-E153Q was incubated on ice for 20 min before the addition of 10 μM R4 and 50 μM of SAM. […]

PRMT1-WT = target: T2, PRMT1-WT (Homo sapiens, UniProt Q99873); assay: Radiometric P81 filter-binding assay, PRMT1-WT concentration dependence; type: biochemical; conditions: 50 μM peptide, 2 μM [3H]-SAM and 48 μM SAM, 30 min, room temperature, pH 8.0
T2 construct: His-MBP (N, cleaved yes); made in house; host or cells: Escherichia coli BL21 (DE3) RIPL
Text: We used the phosphocellulose P81 filter paper–binding assay to measure the catalytic activity of PRMT1 at different concentrations on individual peptides. Each reaction mixture was composed of PRMT1-WT at varied concentrations, at fixed concentrations of SAM and peptide. The reaction mixture was quenched with isopropanol, transferred to the P81 filter paper, and washed with sodium bicarbonate buffer (pH 9). […] The measured count-per-minute (CPM) values correlated directly with the amounts of methylated peptide products. In a typical enzymatic catalysis, the product should be formed linearly as a function of enzyme concentration.
Various concentrations of PRMT1-WT were incubated with radioactive 2 μM [3H]-SAM and 48 μM SAM and 50 μM of indicated peptides for 30 min. The reaction was quenched with 100% isopropanol.
The reaction buffer consisted of 50 mM Hepes pH 8.0, 10 mM NaCl, 0.5 mM EDTA, and 0.5 mM DTT. The reaction was incubated at room temperature for 30 min after being initiated with ^3H-SAM SAM. An equal amount of 100% isopropanol to the total reaction volume was used to quench the reaction. The reaction liquid was transferred onto the phosphocellulose P81 filter paper (1.1 cm × 2 cm, Protein Chemistry & Metabolism Unit at St Vincent's Institute of Medical Research). The P81 filter papers containing the samples were left at room temperature for 30 min to airdry. […]

PRMT1 [3] = target: T1, PRMT1; assay: Dynamic light scattering of PRMT1 oligomers; type: physicochemical; conditions: no denaturant, 50 mM Hepes pH 8, 10 mM NaCl, 0.5 mM EDTA, 0.5 mM DTT, 25 °C, average of three runs of 25 scans
Text: Dynamic light scattering (DLS) uses a laser to measure the particle size distribution ([26]). The DLS can give information regarding the heterogeneity of protein in a sample ([27]). In the past, DLS was used to study microbial and viral structure ([28]). Nowadays, DLS is a popular method for studying nanoparticles, liposomes, and exosomes ([29], [30], [31], [32]). Researchers have also used DLS to study the protein folding of bovine serum albumin ([33]). Therefore, we envisage that the DLS can be utilized to analyze the size changes of PRMT1 oligomeric compositions in an aqueous solution. We expect to see an increase in size with increasing protein concentrations. The prepared PRMT1 protein at varied concentrations was allowed to incubate in the aqueous buffer for equilibrium on ice for 10 min. The protein solution was filtered with 0.2-micron filter to remove any big interfering particles. The protein size was analyzed using a Malvern Zetasizer instrument. We took an average of three runs with about 25 scans each time to evaluate the data. […] Guanidine hydrochloride is a popular protein denaturant ([34]). […] As a negative control, we incubated PRMT1 in the presence of 6 M guanidine hydrochloride to disrupt oligomer formation. […] A literature reported that guanidine thiocyanate is a stronger denaturant than guanidine hydrochloride ([35]).
Figure 2 Oligomerization of PRMT1 detection by dynamic light scattering. Various concentrations of PRMT1 were incubated on ice for 10 min, then filtered by 0.2-micron syringe filter and collected data from the DLS. The top line with black circle indicates PRMT1 without denaturant. The open triangle and hexagon lines indicated PRMT1 oligomeric structure disrupted by 6 M guanidine hydrochloride and 5 M guanidine thiocyanate, respectively.
Indicated concentrations of PRMT1 were incubated for 10 min on ice with buffer (50 mM Hepes pH 8, 10 mM NaCl, 0.5 mM EDTA, 0.5 mM DTT) and filtered through the 0.22 μm syringe filter. For the experiment to disrupt the oligomer formation, 6 M of guanidine hydrochloride or 5 M of guanidine thiocyanate was added to the reaction. The samples were injected into the 1 ml disposable cuvette and measured by Zetasizer Nano ZS (Malvern Instruments) at 25 °C. Three measurements of 25 scans each were collected to average. The data was analyzed by the Malvern Zetasizer software v7.10.

R4 peptide = assay: MALDI-MS methylation activity of PRMT1-E153Q and PRMT1-WT on R4 peptide; type: biochemical; conditions: 2 μM PRMT1, 10 μM R4, 50 μM SAM, 30 min, room temperature
Text: as §1
The reaction buffer contained 50 mM Hepes pH 8.0, 10 mM NaCl, 0.5 mM EDTA, and 0.5 mM DTT. The reaction consisted of PRMT1 at various concentrations, 10 μM of R4 (Peptide Sequence: Ac-[…]), and 50 μM of SAM. […]

T1 sequence (Q99873 11-353 isoform Q99873-3): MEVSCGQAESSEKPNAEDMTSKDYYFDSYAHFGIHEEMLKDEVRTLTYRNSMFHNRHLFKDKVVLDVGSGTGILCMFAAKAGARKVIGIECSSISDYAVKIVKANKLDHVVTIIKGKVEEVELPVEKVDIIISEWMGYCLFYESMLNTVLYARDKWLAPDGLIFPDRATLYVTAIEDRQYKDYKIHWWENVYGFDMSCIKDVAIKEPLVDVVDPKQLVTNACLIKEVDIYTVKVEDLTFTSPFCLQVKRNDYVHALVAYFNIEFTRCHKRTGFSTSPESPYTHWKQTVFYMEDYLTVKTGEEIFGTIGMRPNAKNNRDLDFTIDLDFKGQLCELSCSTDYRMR
T2 sequence (Q99873 11-353 isoform Q99873-3): as above

Ac-GGRGGFGGRGGKGGRGGFGGRGGFG [R4 peptide, synthetic peptide with four possible arginine methylation sites for PRMT1]
methylation states observed (PRMT1 [1]): multimethylated by PRMT1, from monomethylation to penta-methylation and hexa-methylation; also recorded: the hexa-methylation peak was only observed at 1 μM
R4 methylation states vs PRMT1-E153Q concentration [2]: the amounts of all of the different methylation states increased as more and more PRMT1-E153Q protein was added; also recorded: hexa- and hepta-methylated R4 peptides appeared when PRMT1-E153Q was increased up at 2 μM
PRMT1 enzymatic activity (CPM) vs PRMT1 concentration (PRMT1-WT): increase as higher-order oligomeric structures were formed

protein arginine methyltransferase 1 [PRMT1]
Z-average vs PRMT1 concentration (PRMT1 [3]): increased gradually with the increase in PRMT1 concentration
number of methylation states in R4 substrate by PRMT1-WT (R4 peptide): up to six methylation states in the R4 substrate
